Target: T1, human HSL (Homo sapiens, UniProt Q05469)
T1 construct: generate a full length human HSL ORF with a 3′-His6 tag; made in house; host or cells: High 5 insect cells (baculovirus, pFast-BAC)
T1 sequence (Q05469 1-1076): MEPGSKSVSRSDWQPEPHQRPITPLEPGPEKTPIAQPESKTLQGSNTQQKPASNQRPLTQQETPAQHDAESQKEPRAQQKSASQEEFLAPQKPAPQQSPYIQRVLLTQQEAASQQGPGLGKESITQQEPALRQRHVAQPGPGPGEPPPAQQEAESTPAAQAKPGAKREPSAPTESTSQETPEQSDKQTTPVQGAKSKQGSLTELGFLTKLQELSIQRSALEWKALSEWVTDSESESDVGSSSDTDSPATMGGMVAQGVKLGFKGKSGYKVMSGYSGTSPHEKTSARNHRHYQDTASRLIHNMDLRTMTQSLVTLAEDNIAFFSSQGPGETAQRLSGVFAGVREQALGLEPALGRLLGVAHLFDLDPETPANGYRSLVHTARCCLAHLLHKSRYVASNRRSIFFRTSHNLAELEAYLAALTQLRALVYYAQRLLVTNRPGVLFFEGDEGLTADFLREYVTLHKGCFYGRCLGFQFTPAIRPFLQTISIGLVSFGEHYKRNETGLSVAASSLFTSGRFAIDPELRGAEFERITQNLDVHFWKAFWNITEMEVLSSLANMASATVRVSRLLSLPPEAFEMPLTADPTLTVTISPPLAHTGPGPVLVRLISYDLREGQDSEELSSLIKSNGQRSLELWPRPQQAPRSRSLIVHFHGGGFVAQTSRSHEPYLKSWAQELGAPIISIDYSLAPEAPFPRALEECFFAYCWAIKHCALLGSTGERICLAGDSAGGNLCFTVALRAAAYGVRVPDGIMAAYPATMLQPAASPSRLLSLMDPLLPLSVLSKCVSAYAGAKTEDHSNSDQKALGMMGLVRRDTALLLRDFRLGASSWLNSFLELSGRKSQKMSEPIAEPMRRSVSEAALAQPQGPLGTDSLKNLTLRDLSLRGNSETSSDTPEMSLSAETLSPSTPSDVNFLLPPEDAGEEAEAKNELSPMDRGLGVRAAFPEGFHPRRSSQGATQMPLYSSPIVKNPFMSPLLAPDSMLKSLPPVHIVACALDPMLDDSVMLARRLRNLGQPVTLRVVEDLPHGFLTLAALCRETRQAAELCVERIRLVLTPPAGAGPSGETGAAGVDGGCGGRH
Experiment: Human Hormone-Sensitive Lipase (HSL) enzyme inhibition assay (colorimetric, DMPT substrate)
Assay type: biochemical
Details: human full length HSL-His6, 2,3-dimercapto-1-propanol tributyrate substrate, 37° C. 20 minutes, absorbance at 405 nm; read-out: HSL hum IC50
Description: Production of Human Full Length Hormone Sensitive Lipase-His^6:
1) Cloning: cDNA was prepared from commercial human brain polyA+ RNA and used as a template in overlapping PCR to generate a full length human HSL ORF with a 3′-His6 tag. This full length insert was cloned into the pFast-BAC vector and the DNA-sequence of several single clones was verified. DNA from a correct full length clone with the 3′His6 tag was used to transform the E. coli strain DH10BAC. Resulting bacmid DNA was used to generate a titered baculovirus stock for protein generation. The sequence of the encoded HSL conforms to Swissprot entry Q05469, with the additional C-terminal His6-tag. 2) Protein purification: Culture: 5.5 L, High 5 cells expressing human full length HSL-His^6, 48 hr., containing 25 μM E-64. Cell count: […], 90% viable. Cells were thawed. On ice, cells were suspended in Base Buffer containing 10% glycerol, 25 mM Tris-Cl, 300 mM NaCl, 10 mM imidazole, 10 mM 2-mercaptoethanol, 2 μg pepstatin/ml, 2 μg leupeptin/ml, 2 μg antipain/ml, pH 8.0 at 4° C. in a final volume of 475 ml with 3.75×10^7 cells/ml. […] was done at 3×30 sec., Lubrol PX was added to 0.2% final concentration followed by stirring for 15 min. at 4° C. and centrifugation at 25 k×g, 60 min., 4° C. Soluble proteins were mixed with 60 ml of pre-washed and equilibrated Ni-NTA Agarose (Qiagen 30210) followed by tumbling end-over-end, 45 min., 4° C., centrifugation 1000 rpm 5 min and letting resin settle 5 min. Supernatant was removed, the resin washed in the centrifuge vessel using 5 volumes of Base Buffer containing 0.2% Lubrol PX. Centrifugation was done again, then the supernatant discarded. The resin was poured onto a 0.8 μm membrane in a disposable filter unit (Nalge 450-0080), and washed with 5 volumes of Base Buffer containing 0.2% Lubrol PX. It was then washed with 30 volumes of Base Buffer containing 60 mM imidazole pH 7.5 at 4° C. The protein was eluated with 5 volumes of 25 mM Tris-Cl, 300 mM NaCl, 200 mM imidazole, 10 mM 2-mercaptoethanol, pH 7.5 at 4° C. by tumbling resin with buffer end-over-end, 30 min., 4° C. The resin was captured on a 0.2 μm membrane disposable filter unit (Millipore SCGP U02 RE) and the eluate collected in the reservoir. The eluate was concentrated using a 30 k MWCO centrifugal filter device (Sartorius Vivascience Vivacell 100, VC1022), to 20 ml. It was then dialyzed overnight at 4° C., two times against 2 L of 10% glycerol, 25 mM Tris-Cl, 300 mM NaCl, 0.2 mM EDTA, 0.2 mM DTT, pH 7.5 at 4° C. The protein was filtered using a 0.22 μm disposable filter unit (Millipore SCGP00525). The protein concentration was calculated from absorbance at 280 nm, using 280=0.67 cm-1 mg-1. Yield was 235 mg, total. The protein was stored at −80° C. Human Hormone-Sensitive Lipase (HSL) Enzyme Inhibition Assay:
HSL enzyme activity was measured by a colorimetric assay using 2,3-dimercapto-1-propanol tributyrate (Aldrich, St. Louis, Mo.) as a substrate. Typically, 1.5 mM 2,3-dimercapto-1-propanol tributyrate (DMPT) in 100 mM MOPS, pH 7.2, 0.2 mg/ml fatty acid-free BSA was prepared by sonication at 4° C. to homogenous suspension. Test compounds (2 mM stock in DMSO) were diluted 3 fold in series in DMSO. Compound solutions were diluted 24 fold in 1.5 mM DMPT containing solution and 18 ul per well was added to 384-well microplates (Corning Costar). Twelve microliters per well of human HSL (15 ug/ml) was added and the reaction mixture was incubated at 37° C. for 20 minutes. Six microliters of 12 mM dithio-bis-(2-nitrobenzoic acid) (DTNB) in DMSO plus 1.2% SDS and 0.6% Triton X-100 were added and the mixture was incubated at room temperature for 15 minutes. Product production was monitored by reading absorbance at 405 nm on an Envision Reader (PerkinElmer Life and Analytical Sciences, Shelton, Conn.).

| Structure (SMILES) | IC50 [nM] |
| --- | --- |
| CNC(=O)O[C@H]1CC[C@@]2(CCN(c3ccc(OC(F)(F)F)cc3)C2=O)CC1 [Example 17, Methyl-carbamic acid [(5α,8β)-1-oxo-2-(4-trifluoromethoxy-phenyl)-2-aza-spiro[4.5]dec-8-yl]ester] | 80 |
| O=C(NCCc1ccccc1)O[C@H]1CC[C@@]2(CCN(c3ccc(OC(F)(F)F)cc3)C2=O)CC1 [Example 18, Phenethyl-carbamic acid [(5α,8β)-1-oxo-2-(4-trifluoromethoxy-phenyl)-2-aza-spiro[4.5]dec-8-yl]ester] | 60 |
| O=C1N(c2ccc(OC(F)(F)F)cc2)CC[C@]12CC[C@@H](Oc1cnccn1)CC2 [Example 19, (5α,8β)-8-(Pyrazin-2-yloxy)-2-(4-trifluoromethoxy-phenyl)-2-aza-spiro[4.5]decan-1-one] | 140 |
| O=C1N(c2ccc(OC(F)(F)F)cc2)CC[C@]12CC[C@@H](Oc1ncccn1)CC2 [Example 20, (5α,8β)-8-(Pyrimidin-2-yloxy)-2-(4-trifluoromethoxy-phenyl)-2-aza-spiro[4.5]decan-1-one] | 100 |
| Cc1ccc(O[C@H]2CC[C@@]3(CCN(c4ccc(OC(F)(F)F)cc4)C3=O)CC2)nn1 [Example 21, (5α,8β)-8-(6-Methyl-pyridazin-3-yloxy)-2-(4-trifluoromethoxy-phenyl)-2-aza-spiro[4.5]decan-1-one] | 100 |
| O=C(NCC1CC1)O[C@H]1CC[C@@]2(CCN(c3ccc(OC(F)(F)F)cc3)C2=O)CC1 [Example 22, (Cyclopropylmethyl)-carbamic acid [(5α,8β)-1-oxo-2-(4-trifluoromethoxy-phenyl)-2-aza-spiro[4.5]dec-8-yl]ester] | 60 |
| COCCO[C@H]1CC[C@@]2(CCN(c3ccc(OC(F)(F)F)cc3)C2=O)CC1 [Example 23, (5α,8β)-8-(2-Methoxy-ethoxy)-2-(4-trifluoromethoxy-phenyl)-2-aza-spiro[4.5]decan-1-one] | 190 |
| CCO[C@H]1CC[C@@]2(CCN(c3ccc(OC(F)(F)F)cc3)C2=O)CC1 [Example 24, (5α,8β)-8-Ethoxy-2-(4-trifluoromethoxy-phenyl)-2-aza-spiro[4.5]decan-1-one] | 370 |
| Cc1cnc(CNC(=O)O[C@H]2CC[C@@]3(CCN(c4ccc(OC(F)(F)F)cc4)C3=O)CC2)cn1 [Example 25, (5-Methyl-pyrazin-2-ylmethyl)-carbamic acid [(5α,8β)-1-oxo-2-(4-trifluoromethoxy-phenyl)-2-aza-spiro[4.5]dec-8-yl]ester] | 80 |
| CC(C)(O)CNC(=O)O[C@H]1CC[C@@]2(CCN(c3ccc(OC(F)(F)F)cc3)C2=O)CC1 [Example 26, (2-Hydroxy-2-methyl-propyl)-carbamic acid [(5α,8β)-1-oxo-2-(4-trifluoromethoxy-phenyl)-2-aza-spiro[4.5]dec-8-yl]ester] | 110 |
| O=C(NCCO)O[C@H]1CC[C@@]2(CCN(c3ccc(OC(F)(F)F)cc3)C2=O)CC1 [Example 27, (2-Hydroxy-ethyl)-carbamic acid [(5α,8β)-1-oxo-2-(4-trifluoromethoxy-phenyl)-2-aza-spiro[4.5]dec-8-yl]ester] | 180 |
| O=C(NCc1cnccn1)O[C@H]1CC[C@@]2(CCN(c3ccc(OC(F)(F)F)cc3)C2=O)CC1 [Example 28, (Pyrazin-2-ylmethyl)-carbamic acid [(5α,8β)-1-oxo-2-(4-trifluoromethoxy-phenyl)-2-aza-spiro[4.5]dec-8-yl]ester] | 80 |
| O=C(NC1CC1)O[C@H]1CC[C@@]2(CCN(c3ccc(OC(F)(F)F)cc3)C2=O)CC1 [Example 29, Cyclopropyl-carbamic acid [(5α,8β)-1-oxo-2-(4-trifluoromethoxy-phenyl)-2-aza-spiro[4.5]dec-8-yl]ester] | 80 |
| NC(=O)O[C@H]1CC[C@@]2(CCN(c3ccc(OC(F)(F)F)cc3)C2=O)CC1 [Example 30, Carbamic acid [(5α,8β)-1-oxo-2-(4-trifluoromethoxy-phenyl)-2-aza-spiro[4.5]dec-8-yl]ester] | 250 |
| COc1ccc(N2CC[C@]3(CC[C@H](O)CC3)C2=O)cc1 [Example 31, (5α,8α)-8-Hydroxy-2-(4-methoxy-phenyl)-2-aza-spiro[4.5]decan-1-one] | 23700 |
| CCc1ccc(N2CC[C@]3(CC[C@H](O)CC3)C2=O)cc1 [Example 32, (5α,8α)-2-(4-Ethyl-phenyl)-8-hydroxy-2-aza-spiro[4.5]decan-1-one] | 900 |
| O=C1N(CCc2ccc(F)cc2)CC[C@]12CC[C@H](O)CC2 [Example 33, (5α,8α)-2-[2-(4-Fluoro-phenyl)-ethyl]-8-hydroxy-2-aza-spiro[4.5]decan-1-one] | 6000 |
| CCc1ccc(CCN2CC[C@]3(CC[C@H](O)CC3)C2=O)cc1 [Example 34, (5α,8α)-2-[2-(4-Ethyl-phenyl)-ethyl]-8-hydroxy-2-aza-spiro[4.5]decan-1-one] | 800 |
| COc1ccc(CCN2CC[C@]3(CC[C@H](O)CC3)C2=O)cc1 [Example 35, (5α,8α)-8-Hydroxy-2-[2-(4-methoxy-phenyl)-ethyl]-2-aza-spiro[4.5]decan-1-one] | 16500 |
| CCCc1ccc(N2CC[C@]3(CC[C@H](O)CC3)C2=O)cc1 [Example 37, (5α,8α)-8-Hydroxy-2-(4-propyl-phenyl)-2-aza-spiro[4.5]decan-1-one] | 210 |
| CC(C)c1ccc(N2CC[C@]3(CC[C@H](O)CC3)C2=O)cc1 [Example 38, (5α,8α)-8-Hydroxy-2-(4-isopropyl-phenyl)-2-aza-spiro[4.5]decan-1-one] | 240 |
